As usually defined, the Ki is a measure of affinity in units of concentration, obtained from inhibition or displacement. Usually IC50 stands for the point on the concentration scale where inhibition reaches its midpoint. By EC50 is commonly meant the concentration needed to bring the measured effect to its halfway point.

Here are results for two compounds from US10189824B2, “Pyrimidine-diamine dual HSP90/TRAP1 inhibitors” (CalAsia Pharmaceuticals, Inc., priority 2014, dated 2019).

For series [1], the target named is T1, TRAP1 (Homo sapiens, UniProt Q12931).
T1 construct: Recombinant full-length human Hsp90 and 459 TRAP1 were cloned; 6His (TEV-cleavable) (N); made in house; host or cells: E. coli BL21 (DE3)
T1 sequence (Q12931 60-704): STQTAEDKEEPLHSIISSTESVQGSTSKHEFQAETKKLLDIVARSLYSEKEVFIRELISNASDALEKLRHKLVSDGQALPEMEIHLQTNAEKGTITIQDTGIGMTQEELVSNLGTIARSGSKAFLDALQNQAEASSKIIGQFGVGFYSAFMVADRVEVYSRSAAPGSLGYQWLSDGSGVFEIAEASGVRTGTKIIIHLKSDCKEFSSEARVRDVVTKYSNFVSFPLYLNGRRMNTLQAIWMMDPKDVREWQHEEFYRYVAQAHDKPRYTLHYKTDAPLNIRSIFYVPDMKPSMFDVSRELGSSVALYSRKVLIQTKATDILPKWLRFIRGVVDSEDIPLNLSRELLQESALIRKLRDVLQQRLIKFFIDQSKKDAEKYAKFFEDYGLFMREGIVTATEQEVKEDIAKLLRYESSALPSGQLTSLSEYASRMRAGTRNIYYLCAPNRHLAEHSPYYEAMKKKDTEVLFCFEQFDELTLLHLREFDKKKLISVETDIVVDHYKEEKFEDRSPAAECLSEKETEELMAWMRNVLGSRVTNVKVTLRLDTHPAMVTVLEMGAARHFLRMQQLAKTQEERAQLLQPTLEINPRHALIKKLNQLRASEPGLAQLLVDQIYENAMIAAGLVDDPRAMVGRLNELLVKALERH
The series is described as follows: Fluorescence polarization (FP) displacement assay, GA-FITC, TRAP1. Format: binding. The note with it: FP displacement of GA-FITC, 200 nM TRAP1; for Ki: NA: Not active, read-out: Biochemical efficacy TRAP1 Ki. The protocol:
(§1) Prior to transforming into BL21 (DE3) all the cloned vectors were sequence confirmed. Expressed proteins were purified using NTA resin (Life Technologies) followed by size exclusion chromatography using FPLC. The molecular mass of the purified proteins was confirmed by MALDI-TOF and assessed for purity by SDS-PAGE.
(§2) The assay conditions were 20 mM HEPES, pH-7.5, 50 mM KCl, 5 mM MgCl2, 20 mM sodium molybdate, 2 mM DTT, 0.01% NP40, 100 ug/ml BSA, 50 nM Hsp90 or 200 nM TRAP1, 1% DMSO, and 8 nM (for Hsp90) or 20 nM (for TRAP1) GA-FITC in the presence of increasing concentrations of test compound.
(In general: Fluorescence polarisation rises when a labelled molecule tumbles more slowly, as on binding a larger partner.)

Series [2] relates to GBM10. Description: Cellular efficacy in Mayo Clinic GBM PDX cell line GBM10. It counts as cell-based. The protocol:
Short-term explant cultures from PDX models were seeded into 96-well Perfecta3D hanging drop plates to form a single spheroid in each well after 2 days. The spheroids were transferred to a round bottom 96 well plate by centrifugation and then incubated with graded concentrations of test compound (8 spheroids per compound concentration). Spheroid volumes were monitored every 6 hours over the course of 5 days using the IncuCyte system (Essen BioScience, MI, US) to provide a growth curve akin to a tumor regrowth assay.

In series [3] the test system is U251MG cells. Description: TMRE assay, cell-based (mitochondrial membrane potential). The following applies: for Decrease of specific TMRE fluorescence vs untreated: U251MG cells, 48 h. The protocol:
[…] TMRE (200 nM) was then added to wells for 30 min and monitored for changes in fluorescence activity either by fluorescence microscopy using an inverted Zeiss LSM 710 confocal microscope or by spectrophotometry using a fluorescence plate reader (544ex/590em) after washing the cells. Specific TMRE fluorescence was calculated by comparison to matched wells pretreated with 20 uM FCCP for 10 min prior to addition of TMRE. For mitochondria assays, untreated U251MG cells grown to confluence in T75 culture flasks. Mitochondria from these cells were isolated using a mitochondria isolation kit (Thermo Scientific) and loaded with 0.1 mM TMRE in kit buffer at 37° C. for 20 min. After washing, the TMRE-loaded mitochondria (2 ug per well) were incubated in a 96 well black plate with test compounds and monitored kinetically at 30° C. for changes in fluorescence using a fluorescence plate reader (ex 544/em 590). The fluorescence intensity after treatment with 20 um FCCP in control wells corresponded to a fully depolarized state.
(§3) Mitochondrial integrity was evaluated using Tetramethylrhodamine ethyl ester (TMRE) assay. A TMRE assay kit (Abcam) was used to evaluate Hsp90/TRAP1 inhibitor-induced changes in mitochondrial membrane potential. […] TMRE (200 nM) was then added to wells for 30 min and monitored for changes in fluorescence activity using a fluorescence plate reader (ex544/em 590) after washing the cells. Specific TMRE fluorescence was calculated by comparison to matched wells pretreated with the depolarizing proton ionophore carbonyl cyanide 4-(trifluoromethoxy)phenylhydrazone (FCCP) at 20 uM 10 min prior to addition of TMRE. For mitochondria assays, mitochondria was isolated using a kit from Thermoscientific and loaded with 0.1 mM TMRE. TMRE-loaded mitochondria (2 μg per well) were incubated with test compounds and monitored kinetically at 30° C. for changes in fluorescence using a flurorescence plate reader (ex 544/em 590) (FIGS. 6A, 9A and 12).

The target in series [4] is human Hsp90. Description: Fluorescence polarization (FP) displacement assay, GA-FITC, Hsp90. The following applies: FP displacement of GA-FITC, 50 nM Hsp90; for Ki: read-out: Biochemical efficacy HSP90 Ki. Format: binding. The protocol: as §1, §2
The subject of series [5] is mitochondria isolated from HEI193 cells. Description: Analysis of drug accumulation in the mitochondria. Format: in vitro ADME, human. The note with it: 20 uM. As for the experimental part: Mitochondria (100 μg) isolated from MDA-MB-231 and […] tumor cell lines were incubated with 20 μM CAP01088 for 30 mins at 30° C. in mitochondrial incubation buffer (MIB: 0.2M sucrose, 10 mM Tris-MOPS, pH 7.4, 5 mM succinaye, 1 mM Pi, 2 μM rotenone, and 10 μM EGTA with modifications as needed). The mitochondria were chilled on ice and collected by centrifugation at 8000 g for 10 min. The supernatant was collected and the mitochondrial pellet was washed twice with MIB and dissolved in lysis buffer (acetonitrile/methanol, 3:1). The concentration of CAP01088 in supernatant and mitochondrial extract was analyzed using a Waters HPLC/Mass spectrometer (FIGS. 6B and 9B).

In series [6] the test system is HEI193 cells. The series is described as follows: TMRE assay, HEI193 cell mitochondrial integrity. It counts as cell-based, human. The following applies: observed as early as 2 hours after treatment. As for the experimental part: as §3

Take `COc1c(C)cnc(CN(CC2(c3ccc(F)cc3)CCOCC2)c2cc(Cl)nc(N)n2)c1C` [Compound A, 6-chloro-4-N-{[4-(4-fluorophenyl)oxan-4-yl]methyl}-4-N-[(4-methoxy-3,5-dimethylpyridin-2-yl)methyl]pyrimidine-2,4-diamine]: the Ki in series [1] amounted to 0.039 µM; in series [4], 0.011 µM. The IC50 in series [1] (read-out: Biochemical efficacy TRAP1 IC50) amounted to 0.312 µM; in series [4] (read-out: Biochemical efficacy HSP90 IC50), 0.044 µM. This compound displayed an EC50 in series [2] of 0.28 µM. Besides, the “Effect on TMRE fluorescence of U251MG cells” value in series [3] (2 hour or 4 hr) is on record as “dose-dependent decrease”. In addition, in series [5], the “Accumulation in isolated mitochondria compared to culture medium” value is on record as “greater than 6 fold”. Besides, the “Effect on TMRE fluorescence in HEI193 cells” value in series [6] was “dose-dependent decrease”.
As to `COc1c(C)cnc(CN(CCc2ccccn2)c2cc(Cl)nc(N)n2)c1C` [Compound 1, 6-chloro-4-N-[(4-methoxy-3,5-dimethylpyridin-2yl)methyl]-4-N-[2-(pyridine-2-yl)ethyl]pyrimidine-2,4-amine], the Ki is 0.0504 µM in series [1] and 0.0394 µM in series [4]. In addition, the figures for the “Decrease of specific TMRE fluorescence vs untreated” value in series [3] (5 uM) and in series [3] (50 uM) were 42% and 73%, respectively.
